Measured values published in a melting point compilation (Tetko et al.; mined from patent text by program, amines drawn as free bases though some values may be those of a salt).

melting point	Structure (SMILES)
160 to 163 °C	COc1ccc(C(=O)Nc2ccc(F)c(F)c2)cc1NCc1cccc(O)c1
113 to 115 °C	Cn1c(C(F)(F)F)cc(=O)n(-c2nc(Cl)c(Cl)cc2F)c1=O
> 250 °C	N[C@@]1(C(=O)O)C[C@H](NC(=O)Nc2cccc(F)c2)[C@H]2[C@H](C(=O)O)[C@H]21 (relative stereo)
129 to 131 °C	COc1cc(C(=O)Nc2ccccc2C(c2ccc(O)cc2)c2ccc(O)cc2)ccc1[N+](=O)[O-]
241 to 242 °C	CN1C(=O)CCC2(C)c3ccc(Sc4cccc5cccnc45)cc3CCC12 (centres undefined)
64 to 64.5 °C	COC(=O)c1cccc([N+](=O)[O-])c1I
204 to 205 °C	CC(C)=CC(=O)NCC1Cc2ccc(-c3ccc(=O)[nH]n3)cc2C1 (centres undefined)
101 to 102 °C	CCC(=O)c1cc2c(Oc3ccc(Cl)cc3)cncc2s1
93 to 96 °C	CCNC(=O)c1c(Br)csc1[Si](C)(C)C
242 to 246 °C	CN1C(=O)C(c2ccccc2)=C(c2cn(C)c3ccccc23)C1=O
82 °C	CC(C)(C)N(C(=O)COc1nnc(C(F)(F)F)s1)c1ccc(Cl)cc1
148 to 152 °C	CCOC(=O)Cc1ccnc(C(SC)=C(C#N)C#N)c1
184 to 186 °C	CCC(O)CN1CCN(C2Cc3ccc(F)cc3Sc3ccc(N)cc32)CC1 (centres undefined)
227 to 228 °C	CC(C)(CCC#N)c1ccc(C(=O)Nc2cn3c4c(ccc3n2)OCC4)cc1
131 to 132 °C	N#CCNC(=O)c1ccnc(Cl)c1
174 °C	O=C1Nc2ccccc2C(=O)N2CCCC12 (centres undefined)
170 °C	CCOC(=O)Cc1ccc(SCc2ccc(NC(C)=O)cc2C(=O)O)cc1
154 to 156 °C	O=C(O)c1ccc(Cl)nc1C(F)(F)F
209 to 210 °C	CN1CC(C(=O)c2nc(Cc3ccc(F)cc3)co2)=C(O)C1=O
131 to 133 °C	CSc1ccc(C(C#N)=NO)cc1SC
236 to 237 °C	CCOC(=O)Cn1c(=O)c(=O)[nH]c2cc(C(F)(F)F)c(-n3ccc(C=O)c3)cc21
121 °C	CCOC(=O)Cn1cc(F)cnc1=O
262 to 263 °C	COc1cccc(-c2cc3c(Nc4cccc(Cl)c4)ncnc3[nH]2)c1

melting point	Structure (SMILES)
126 to 127 °C	O=C(O)CCCCCCCNS(=O)(=O)c1ccc([N+](=O)[O-])cc1
121 to 122 °C	COC(=O)CCc1cc(C(=O)c2cccc(C(=O)OC)n2)ccc1O
50 to 51 °C	COC(=O)CCC(=O)c1ccccc1N
166 to 167 °C	O=C(O)C1CCc2ccc3[nH]ccc3c21 (centres undefined)
115 to 119 °C	CC(C)(C)CNc1nc(Cl)cc(NC(C)(C)C)n1
127 to 129 °C	Clc1c(CBr)ccc2cc(CBr)ccc12
65 °C	CC(C)(O)C(C(=O)O)c1ccc(Cl)cc1 (centres undefined)
133 to 134 °C	CN1CCCc2ccc(C(=O)CCC(=O)N3CCC(c4ccc(Cl)cc4)CC3)cc2C1
46 °C	Cc1cc(C=O)c(OCCCCCCBr)c(C=O)c1
97 to 99 °C	COc1cc(C)c(C(=O)c2c(OC)cnc(Br)c2Cl)c(OC)c1OC
63 to 73 °C	CCCCNS(=O)(=O)C[C@@H](O)C(O)[C@@H](CC1CCCCC1)NC(=O)[C@H](CC(C)C)NC(=O)CCc1ccccc1 (relative stereo)
106 to 108 °C	CCCCCCCCCCC[C@@H]1CC(O)=C(CCCCCC)C(=O)O1
111 to 112 °C	CC1(C)CCC(C)(C)c2cc(C(=O)COc3ccc(C=O)c(O)c3)ccc21
160 to 161 °C	CN1CCN(C(=O)Nc2ccccc2NC(=O)c2cc(C(C)(C)C)c(O)c(C(C)(C)C)c2)CC1
197 to 199 °C	O=c1cc(-c2ccc(OCCCCl)cc2)cn[nH]1
282 to 284 °C	CCn1ncc2c(NCc3cccnc3)c3ccccc3nc21
186 to 187 °C	COc1cc(C(=O)NS(=O)(=O)c2ccccc2)ccc1CN1CCOc2ccc(NC(=O)OC3CCCC3)cc21
178 to 181 °C	C[C@@H](n1ccn(-c2ccc(-n3ccnn3)cc2)c1=O)[C@](O)(Cn1cncn1)c1ccc(F)cc1F
174 °C	COC(=C1NC(=O)C(=NO)C1=O)c1ccccc1
206 to 207 °C	CCCC(=O)c1c[nH]c2c(OC)nccc2c1=O
159 to 162 °C	CC(C)(C)C(=O)Oc1ccc(OC(=O)C(C)(C)C)c(C(=O)O)c1
155 to 157 °C	Cn1cc(SCc2ccccc2)c(=O)c(-c2ccccc2)c1
180 to 182 °C	O=C1CCC(N2Cc3c(OCc4cccc(CN5CCC(c6ccc(Cl)cc6)CC5)c4)cccc3C2=O)C(=O)N1 (centres undefined)

melting point	Structure (SMILES)
126 to 128 °C	COC1=CC(=O)OC1C(O)c1ccccc1C(F)(F)F (centres undefined)
87 to 92 °C	CC(C)C[C@@H](C=O)NC(=O)[C@H](Cc1c[nH]cn1)NC(=O)C(CCCCc1ccccc1)Cc1cccc2ccccc12 (some centres undefined)
174 to 176 °C	Cc1cccc(NC(=O)NC2CN(C(=O)C(C)C)c3ccccc3N(CC(=O)c3ccccc3C)C2=O)c1 (centres undefined)
250 to 252 °C	O=C1CCc2cc(CN3CCN(C(=O)c4ccc(Oc5ccc(NC(=O)c6ccc(C(F)(F)F)cc6)cn5)cc4)CC3)ccc2N1
190 °C	CC1CCN(c2nc(N)c3ccccc3n2)CC1
217 to 220 °C	Cc1c(C(=O)NC2CCCCC2)nc(-c2ccccc2Cl)n1-c1ccc([N+](=O)[O-])cc1
> 300 °C	O=C(O)c1cn(-c2ccc(F)cc2)c2c(F)c(N3Cc4cccc(O)c4C3)c(F)cc2c1=O
182 to 183 °C	Clc1cc(Cl)c2cccc3c2c1N=C3NCCCn1ccnc1
76 to 78 °C	CCOC(=O)CCC1(C)Oc2ccc([N+](=O)[O-])cc2O1 (centres undefined)
> 45 °C	CC(C)(C)OC(=O)c1ccccc1-c1ccc(CNC(=S)NN)cc1
244 to 246 °C	Cc1ccc(S(=O)(=O)N2c3ccccc3C(c3ccccc3)(c3ccccc3)C2NC(=O)Nc2ccc(F)cc2F)cc1 (centres undefined)
102 to 104 °C	Cc1cn(C(C(=O)N(C)C)C2CCCCC2)nc1-c1ccccc1 (centres undefined)
202 to 204 °C	COc1ccc2c(c1)NC(=O)CC(C(=O)O)C2 (centres undefined)
225 to 227 °C	CCCn1cc2c(n1)c(N)nc1ccccc12
182 °C	CC1(C)CC(NC(=O)c2ccccc2)CC(C)(C)N1CC#N
187 to 189 °C	O=c1nc(-c2cccc(CS(=O)Cc3ccccc3)n2)sc2ccccc12 (centres undefined)
192 to 194 °C	CC(C)(O)CCOc1ccc(/C=C/C(=O)O)c(Oc2ncc(C(F)(F)F)cc2Cl)c1
69 to 72 °C	CC(C)(C)c1cc(SC2CC(=O)N(CCCCCCN3C(=O)CC(Sc4cc(C(C)(C)C)c(O)c(C(C)(C)C)c4)C3=O)C2=O)cc(C(C)(C)C)c1O (centres undefined)
303 to 304 °C	COc1cccc(C(=O)O)c1OCCN1CCC(c2cn(Cc3ccoc3)c3cnccc23)CC1
212 °C	CNc1ccc(C2CC(=O)N(C)C2C(O)c2ccc(-c3ccccc3)s2)cc1 (centres undefined)
115 to 118 °C	CCCSC(=S)N1C(CO)Cc2c([nH]c3ccccc23)C1C (centres undefined)
125 to 126 °C	CC(C)CNCc1cc2cc(NC(=O)c3ccc(OCC4CCOC4)cc3)ccc2n1C (centres undefined)
167 to 172 °C	CC(C)Cc1cccc(CCCn2c(=O)[nH]c3cc(Cl)cc(Cl)c3c2=O)c1

melting point	Structure (SMILES)
109 to 110 °C	CS(=O)(=O)c1ccc(Oc2ccc(Cc3ccccc3)cc2)cc1
> 200 °C	CS(=O)(=O)Nc1cc(C(O)CNC2CCN(c3ccc(C=C4SC(=O)NC4=O)cc3Br)CC2)ccc1O (centres undefined)
214 °C	CC(C)(C)OC(=O)c1ncn2c1CN(C(=O)N1CCCC1)c1c(F)cccc1-2
146 °C	CNCCOc1ccc2ccc(NC(=O)c3ccc(OC)cc3)nc2n1
> 280 °C	O=[N+]([O-])c1ccc(-c2cc3c(Cl)ncnc3[nH]2)cc1
100 to 101 °C	O=C(O)CCC(=NOCc1ccc(OCc2cc(-c3ccccc3)on2)cc1)c1ccccc1
205 to 210 °C	O=C(O)CCCn1ccc(=O)c(OCc2ccccc2)c1C(O)c1ccccc1 (centres undefined)
119 to 121 °C	CCCCCCCCCCCCCCCC(=O)NCCCCCCCCCCCC(=O)O
92 to 94 °C	NS(=O)(=O)c1cc(C(=O)O)cc(SCc2ccsc2)c1-c1ccccc1
107 to 110 °C	CC(C)c1cc(C(C)C)c(OS(=O)(=O)CC(=O)N(Cc2ccccc2)Cc2ccccc2)c(C(C)C)c1
> 275 °C	Nc1nc(-c2cc(Cl)ccc2Cl)nc(N2CCS(=O)(=O)CC2)n1
208 to 210 °C	Cc1cc(-c2csc(N)n2)on1
195 to 198 °C	COc1ccc(-c2nc3cc(Cl)c(Cl)cc3n2C(=O)OCc2ccccc2)cc1NS(=O)(=O)c1cccs1
64 to 66 °C	CCCCCCCCCCCCCC/C=C\CC[C@@H]1OC(=O)C(O)=C1O
100 to 102 °C	FC(F)(F)Oc1ccc(/C=C/c2ccc(CBr)cc2)cc1
144 to 148 °C	O=S(=O)(c1ccccc1)c1ccc(OCc2ccccc2)c(O)c1
117 to 118 °C	CCCCCCCCCCCCNC1=NC(N2CCOCC2)=NCN1
54 to 56 °C	CCCNC(=O)n1nc(Oc2ncc(C(F)(F)F)cc2Cl)c(Cl)c1C
141 to 142 °C	CCN(CC)CCNC(=O)N1CCCC(S(=O)(=O)c2ccc(Cl)cc2)C1 (centres undefined)
96 to 97 °C	COc1ccc(N(CCCCCO)S(=O)(=O)c2c(F)c(F)c(F)c(F)c2F)cc1
48 to 49 °C	COC(=O)c1ccc2oc(CCC=O)cc2c1

Structure (SMILES)	melting point
CCOC(=O)C(=O)C1C(=O)c2cccc3c2C1CCC3 (centres undefined)	92 to 94 °C
CC1(C)COC(=O)[C@@H]1Oc1ccc(C#N)c(C(F)(F)F)c1	89.9 to 90.7 °C
CC(O)C1CCC2C3CCC4=CC(=O)CCC4(C)C3CCC12C (centres undefined)	163 to 166 °C
Clc1ccc2oc(C3CCNCC3)cc2c1	77 to 78 °C
Cc1csc(C2=CCN(CCCC(O)c3ccc(F)cc3)CC2)n1 (centres undefined)	89 to 90.5 °C
O=CC1(Nc2ccccc2)CCN(Cc2ccccc2)CC1	118 to 119 °C
C=CCc1cc(COC(=O)C(C)C)ccc1C#CC1(O)CN2CCC1CC2 (centres undefined)	68 °C
Clc1ccc2c(C3=CCNCC3)c[nH]c2c1Cl	252 to 254 °C
COC1CC(N2CCCC2)C(N(C)C(=O)COc2cccc(F)c2)CC1OC (centres undefined)	119 to 121 °C
